Where two headings read alike, the source gives them in different places.

This is an account of results in US10221182B2, “3,3-difluoro-piperidine derivatives as NR2B NMDA receptor antagonists” (Rugen Holdings (Cayman) Limited, priority 2015, dated 2019).

One series concerns the target hERG channel (Homo sapiens (Human), UniProt Q12809). Briefly: hERG channel inhibition, whole cell patch clamp in HEK293 cells. Particulars: for hERG @ 10 μM: inhibition at 10 μM. A general note: hERG is a cardiac potassium channel; its block is linked to QT prolongation.
For series [1], the target named is human NR1/NR2A (Homo sapiens (Human), UniProt Q05586+Q12879). Briefly: NR2A antagonist activity, Fluo-4 calcium influx assay in HEK293 cells. Format: cell-based. On the procedure: (§1) Activation of the NR2A or NR2B subtype of NMDA receptor with glutamate as an agonist and glycine co-agonist on these cells results in calcium influx, which can be monitored with fluorescent indicator Fluo-4.
(§2) For experiments, the cells were seeded onto poly-D-lysine-coated 96-well black plates with clear bottom (Corning) at a density of ˜50,000 cells/well. After overnight culture, the growth medium was removed from the wells and the cells were incubated at 37° C. for 60 min in Hanks buffer containing 4 μM fluo-4-AM (Invitrogen) and 0.1% bovine serum albumin (BSA). After dye-loading, the cells were washed three times with Hanks buffer and incubated for 10 min at room temperature with various concentrations of test compounds prepared in Hanks buffer with 0.1% BSA. The cell plates were placed onto FDSS μCell fluorescence reader (Hamamatsu). After 20 sec reading of background fluorescence, agonist glutamate at final 100 μM and co-agonist glycine at final 50 μM were added to the cells to activate the receptor, and the resulting fluorescence changes were recorded and quantified. Based on the changes in fluorescence intensity, the pharmacological effect of test compounds were analyzed and the IC50 values derived from a non-linear least squares fitting of the concentration-dependent response to a standard logistic equation using Prism (Graphpad, Inc): Amplitude=Max Amplitude/(1+([…])^n).

The target in a further series is human NR1/NR2B (Homo sapiens (Human), UniProt Q05586+Q13224). Briefly: NR2B antagonist activity, Fluo-4 calcium influx assay in HEK293 cells. Format: cell-based. The following applies: glutamate 100 μM, glycine 50 μM. As for the experimental part: as §1, §2
For a further series, the target named is CYP2D6 (Homo sapiens (Human), UniProt P10635). Briefly: CYP P450 enzyme inhibition in pooled human liver microsome. The following applies: dextromethorphan 5 μM; for CYP2D6 @ 10 μM: inhibition at 10 μM, pooled HLM.
The target of series [2] is human NR1/NR2A (Homo sapiens (Human), UniProt Q12879). The experiment in a line: NR2A antagonist activity, Fluo-4 calcium influx assay in HEK293 cells. In kind it is cell-based. The following applies: read-out: hNR2A IC50; HEK293 cells expressing NR1/NR2A; glutamate 100 μM, glycine 50 μM. On the procedure: as §1, §2
Setting [3] is: HEK293 cells expressing NR1/NR2A, glutamate 100 μM, glycine 50 μM, read-out: hNR2A IC50.
The mark [4] stands for this setting: HEK293 cells expressing NR1/NR2B, read-out: hNR2B IC50.
Where [5] appears, read: hNR2B IC50, HEK293 cells expressing NR1/NR2B.

human NR1/NR2B, sequence (Q13224 27-1484, other chains not shown): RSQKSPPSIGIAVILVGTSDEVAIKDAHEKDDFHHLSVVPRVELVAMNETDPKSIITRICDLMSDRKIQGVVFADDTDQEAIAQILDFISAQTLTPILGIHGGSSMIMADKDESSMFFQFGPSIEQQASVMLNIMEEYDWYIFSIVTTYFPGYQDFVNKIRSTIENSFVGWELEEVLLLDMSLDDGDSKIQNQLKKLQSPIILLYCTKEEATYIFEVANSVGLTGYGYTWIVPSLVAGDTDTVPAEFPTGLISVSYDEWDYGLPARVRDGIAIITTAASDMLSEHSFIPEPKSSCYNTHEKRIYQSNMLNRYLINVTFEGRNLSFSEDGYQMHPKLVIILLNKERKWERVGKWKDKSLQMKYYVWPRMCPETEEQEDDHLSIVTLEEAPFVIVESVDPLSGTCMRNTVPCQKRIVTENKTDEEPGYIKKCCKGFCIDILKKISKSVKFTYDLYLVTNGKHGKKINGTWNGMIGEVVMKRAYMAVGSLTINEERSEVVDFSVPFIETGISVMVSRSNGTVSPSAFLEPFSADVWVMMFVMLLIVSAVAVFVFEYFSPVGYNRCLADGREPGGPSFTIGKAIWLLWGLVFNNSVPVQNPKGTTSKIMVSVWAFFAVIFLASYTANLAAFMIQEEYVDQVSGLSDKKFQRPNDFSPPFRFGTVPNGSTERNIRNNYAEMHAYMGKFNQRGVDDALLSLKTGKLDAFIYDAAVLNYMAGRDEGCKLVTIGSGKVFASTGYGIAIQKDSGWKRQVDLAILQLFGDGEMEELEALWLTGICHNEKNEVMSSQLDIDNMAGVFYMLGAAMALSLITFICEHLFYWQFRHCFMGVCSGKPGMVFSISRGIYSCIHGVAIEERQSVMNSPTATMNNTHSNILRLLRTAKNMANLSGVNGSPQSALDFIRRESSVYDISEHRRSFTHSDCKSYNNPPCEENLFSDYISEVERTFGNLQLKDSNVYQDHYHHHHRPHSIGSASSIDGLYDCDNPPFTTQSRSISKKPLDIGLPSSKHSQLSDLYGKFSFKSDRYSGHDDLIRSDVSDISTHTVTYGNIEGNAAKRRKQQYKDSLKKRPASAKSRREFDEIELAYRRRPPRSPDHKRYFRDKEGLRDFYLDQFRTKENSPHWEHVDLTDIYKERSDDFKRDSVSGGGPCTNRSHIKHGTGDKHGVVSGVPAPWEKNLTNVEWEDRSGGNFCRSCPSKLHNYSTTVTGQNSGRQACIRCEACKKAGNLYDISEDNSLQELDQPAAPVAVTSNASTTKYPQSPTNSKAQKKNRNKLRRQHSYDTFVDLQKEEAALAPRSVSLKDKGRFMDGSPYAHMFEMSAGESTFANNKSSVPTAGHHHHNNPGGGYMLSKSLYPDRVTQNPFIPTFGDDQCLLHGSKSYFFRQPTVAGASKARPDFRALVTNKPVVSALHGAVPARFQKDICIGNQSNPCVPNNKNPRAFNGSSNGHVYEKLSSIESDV
hERG channel, sequence (Q12809 whole entry): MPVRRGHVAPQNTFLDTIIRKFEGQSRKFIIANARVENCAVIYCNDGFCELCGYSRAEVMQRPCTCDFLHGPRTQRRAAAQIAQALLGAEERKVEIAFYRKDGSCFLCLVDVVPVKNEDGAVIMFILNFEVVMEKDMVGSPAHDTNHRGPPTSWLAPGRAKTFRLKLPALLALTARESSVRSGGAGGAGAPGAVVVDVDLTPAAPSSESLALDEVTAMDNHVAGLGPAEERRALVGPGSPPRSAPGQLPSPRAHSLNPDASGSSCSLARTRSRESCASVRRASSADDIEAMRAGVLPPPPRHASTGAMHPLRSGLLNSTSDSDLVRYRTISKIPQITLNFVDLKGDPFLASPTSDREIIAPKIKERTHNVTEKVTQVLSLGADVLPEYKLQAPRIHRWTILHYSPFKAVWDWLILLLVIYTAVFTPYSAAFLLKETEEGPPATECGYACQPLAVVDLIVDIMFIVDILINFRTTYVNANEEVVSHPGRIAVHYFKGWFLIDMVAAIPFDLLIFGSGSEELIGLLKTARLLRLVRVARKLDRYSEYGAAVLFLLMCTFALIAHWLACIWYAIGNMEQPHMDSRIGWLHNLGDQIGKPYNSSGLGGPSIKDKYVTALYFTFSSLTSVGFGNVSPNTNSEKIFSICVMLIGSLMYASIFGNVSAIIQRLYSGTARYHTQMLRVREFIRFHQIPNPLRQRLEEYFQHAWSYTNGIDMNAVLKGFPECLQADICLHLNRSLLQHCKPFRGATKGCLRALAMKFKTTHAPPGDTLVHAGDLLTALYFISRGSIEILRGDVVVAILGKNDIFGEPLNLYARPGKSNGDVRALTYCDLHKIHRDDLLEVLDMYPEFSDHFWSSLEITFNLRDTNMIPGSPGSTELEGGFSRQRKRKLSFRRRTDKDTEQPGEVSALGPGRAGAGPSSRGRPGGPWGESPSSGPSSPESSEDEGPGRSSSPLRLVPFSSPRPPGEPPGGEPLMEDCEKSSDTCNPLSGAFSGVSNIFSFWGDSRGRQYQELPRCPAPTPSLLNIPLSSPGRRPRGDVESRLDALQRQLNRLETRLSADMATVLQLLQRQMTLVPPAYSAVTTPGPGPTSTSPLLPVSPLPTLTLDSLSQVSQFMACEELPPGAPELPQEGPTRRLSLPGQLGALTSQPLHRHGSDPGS
CYP2D6, sequence (P10635 whole entry): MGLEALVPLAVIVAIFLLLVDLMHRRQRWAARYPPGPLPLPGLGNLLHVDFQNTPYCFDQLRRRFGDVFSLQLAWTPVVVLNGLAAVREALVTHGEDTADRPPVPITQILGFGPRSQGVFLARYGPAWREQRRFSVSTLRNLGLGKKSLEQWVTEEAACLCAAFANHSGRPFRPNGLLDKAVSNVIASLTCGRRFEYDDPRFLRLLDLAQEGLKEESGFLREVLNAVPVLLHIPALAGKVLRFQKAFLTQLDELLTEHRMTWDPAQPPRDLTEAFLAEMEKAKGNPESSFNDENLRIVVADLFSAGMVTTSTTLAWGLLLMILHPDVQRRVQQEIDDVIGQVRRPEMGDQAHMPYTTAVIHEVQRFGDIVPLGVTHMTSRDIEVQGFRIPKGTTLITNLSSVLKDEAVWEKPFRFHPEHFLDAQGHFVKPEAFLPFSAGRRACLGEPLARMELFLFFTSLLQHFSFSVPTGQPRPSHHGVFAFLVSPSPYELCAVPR
human NR1/NR2A (Homo sapiens (Human), UniProt Q05586+Q12879), sequence (Q12879 23-1464, other chains not shown): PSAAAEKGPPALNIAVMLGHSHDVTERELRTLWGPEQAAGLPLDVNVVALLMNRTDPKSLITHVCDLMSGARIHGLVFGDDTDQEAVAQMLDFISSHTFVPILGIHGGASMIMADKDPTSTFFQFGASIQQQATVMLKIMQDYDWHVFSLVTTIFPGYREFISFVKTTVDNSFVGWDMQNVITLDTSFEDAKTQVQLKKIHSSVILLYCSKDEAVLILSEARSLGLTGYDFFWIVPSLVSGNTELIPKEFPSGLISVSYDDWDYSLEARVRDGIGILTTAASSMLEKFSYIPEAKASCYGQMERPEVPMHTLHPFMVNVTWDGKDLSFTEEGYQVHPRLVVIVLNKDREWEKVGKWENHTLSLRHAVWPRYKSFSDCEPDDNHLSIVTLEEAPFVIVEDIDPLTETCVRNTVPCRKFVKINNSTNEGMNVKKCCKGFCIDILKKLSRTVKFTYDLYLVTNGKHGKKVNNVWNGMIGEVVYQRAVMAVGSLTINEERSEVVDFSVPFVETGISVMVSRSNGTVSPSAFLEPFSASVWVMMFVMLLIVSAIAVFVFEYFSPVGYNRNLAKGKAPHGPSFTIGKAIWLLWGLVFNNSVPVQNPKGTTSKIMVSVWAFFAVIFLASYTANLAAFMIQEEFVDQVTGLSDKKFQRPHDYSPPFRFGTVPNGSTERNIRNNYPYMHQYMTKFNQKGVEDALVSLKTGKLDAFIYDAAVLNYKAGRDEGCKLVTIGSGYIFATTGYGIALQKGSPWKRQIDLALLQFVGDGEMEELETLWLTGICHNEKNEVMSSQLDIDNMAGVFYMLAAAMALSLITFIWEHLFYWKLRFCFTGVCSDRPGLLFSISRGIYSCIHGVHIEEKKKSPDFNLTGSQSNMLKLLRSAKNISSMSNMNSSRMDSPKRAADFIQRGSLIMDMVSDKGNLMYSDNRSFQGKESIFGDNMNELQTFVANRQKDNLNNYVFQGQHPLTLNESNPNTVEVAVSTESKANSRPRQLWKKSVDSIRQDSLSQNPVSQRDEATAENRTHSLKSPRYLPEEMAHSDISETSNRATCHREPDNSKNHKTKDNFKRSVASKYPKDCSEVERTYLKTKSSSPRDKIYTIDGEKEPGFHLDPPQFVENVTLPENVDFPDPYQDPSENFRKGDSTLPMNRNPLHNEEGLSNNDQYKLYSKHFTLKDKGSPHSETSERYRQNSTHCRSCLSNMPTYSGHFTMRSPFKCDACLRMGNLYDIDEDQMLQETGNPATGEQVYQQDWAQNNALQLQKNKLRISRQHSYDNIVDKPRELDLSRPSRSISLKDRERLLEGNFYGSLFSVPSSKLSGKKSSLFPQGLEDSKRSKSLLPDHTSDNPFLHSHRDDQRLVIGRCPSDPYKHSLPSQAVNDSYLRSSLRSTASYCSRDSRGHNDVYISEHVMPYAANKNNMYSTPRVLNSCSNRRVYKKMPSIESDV
Experimental for CYP2D6: Those CYP isoforms and their corresponding probe substrates are as follows: CYP1A2 (phenacetin, 30 μM), CYP2C9 (tolutamide, 100 μM), CYP2C19 (S-mephenytoin, 40 μM), CYP2D6 (dextromethorphan, 5 μM) and CYP3A4 (midazolam, 1 μM). All probe substrates were used at concentrations near or below their Kms. For experiment, a reaction mixture of test compound at 10 uM or in serial dilution, CYP probe substrate described above and 0.2 mg/mL pooled HLM in phosphate buffer, pH 7.4 in a final volume of 200 μL was pre-incubated at 37° C. for 10 minutes in triplicate. The reaction was initiated by addition of NADPH at final concentration of 1 mM. The reaction was terminated after 10 minutes (CYP1A2, CYP2D6 and CYP3A4) or 30 minutes (CYP2C9 and CYP2C19) by addition of 100 μL ice-cold acetonitrile with internal standard (IS). The samples were then centrifuged at 13,000 rpm and the supernatants were injected to LC-MS/MS (Agilent Technologies) to quantify the concentration of the specific metabolites of the probe substrates formed by individual CYP450 isoforms. The inhibition ratio is calculated as: (Mt−M0)/Mwater×100% in which Mt and M0 represent the concentrations of the specific probe substrate metabolite, which was formed by individual CYP450 isoform, at the beginning and end of the reaction in the presence of test compound; while Mwater represents the concentration of the specific metabolite at the end of the reaction in the absence of test compound. Test compound concentration-dependent response data experiments performed in triplicate.

Turning to `FC(F)(F)c1ccc(CCN2CCC(Nc3ncnc4[nH]ncc34)C(F)(F)C2)cn1` (racemic) [C-3.5, (±)-N-(3,3-difluoro-1-(2-(6-(trifluoromethyl)pyridin-3-yl)ethyl)piperidin-4-yl)-1H-pyrazolo[3,4-d]pyrimidin-4-amine], the “hERG @ 10 μM” value at hERG channel turned out to be 23%. For the same compound, the IC50 at human NR1/NR2A [1] (setting [3]) was more than 10 µM; at human NR1/NR2B (setting [4]), 822 nM.
As to `FC(F)(F)c1ccc(C(F)(F)CN2CCC(Nc3ncnc4[nH]ncc34)CC2)cc1` [LX-1, reference compound], the “CYP2D6 @ 10 μM” value on CYP2D6 is on record as 93%.
Turning to `FC(F)(F)c1ccc(CCN2CCC(Nc3ncnc4[nH]ncc34)C(F)(F)C2)cc1` (single isomer, unassigned; (+)) [E1-1.5, (+)-(R*)-N-(3,3-difluoro-1-(4-(trifluoromethyl)phenethyl)piperidin-4-yl)-1H-pyrazolo[3,4-d]pyrimidin-4-amine], the IC50 on hERG channel (hERG IC50) was 9.8 µM; at human NR1/NR2A [1] it was more than 10 µM; against CYP2D6 (CYP2D6 IC50, pooled HLM) it was 34.1 µM. On CYP2D6, the “CYP2D6 @ 10 μM” value is recorded as 27.6%.
`Fc1cc(Cl)ccc1CCN1CCC(Nc2ncnc3[nH]ncc23)C(F)(F)C1` (single isomer, unassigned) [E1-1.16, (R*)-N-(1-(4-chloro-2-fluorophenethyl)-3,3-difluoropiperidin-4-yl)-1H-pyrazolo-[3,4-d]pyrimidin-4-amine]: on hERG channel, the “hERG @ 10 μM” value worked out at 47%. In addition, the figures for the IC50 on human NR1/NR2A [1] and on human NR1/NR2B (setting [5]) were more than 10 µM and 27.9 nM, respectively. The “CYP2D6 @ 10 μM” value on CYP2D6 was found to be 23.2%.
With `FC(F)(F)c1ccc(CCN2CCC(Nc3ncnc4[nH]ccc34)C(F)(F)C2)cn1` (racemic) [C-4.5, (±)-N-(3,3-difluoro-1-(2-(6-(trifluoromethyl)pyridin-3-yl)ethyl)piperidin-4-yl)-7H-pyrrolo[2,3-d]pyrimidin-4-amine], at hERG channel, the “hERG @ 10 μM” value is reported as 24%. Also, the IC50 on human NR1/NR2A [1] (setting [3]) is more than 10 µM; on human NR1/NR2B (setting [4]), 1740 nM.
For `FC(F)(F)c1cccc(CCN2CCC(Nc3ncnc4[nH]ncc34)C(F)(F)C2)c1` (racemic) [C-1.36], the “hERG @ 10 μM” value on hERG channel was 56%. For the same compound, on human NR1/NR2A [1], the IC50 is more than 10 µM. For the same compound, the “CYP2D6 @ 10 μM” value on CYP2D6 is 27.9%.
In the case of `FC(F)(F)c1ccc(CCN2CCC(Nc3ncnc4[nH]ccc34)C(F)(F)C2)cc1` (racemic) [C-2.5, (±)-N-(3,3-difluoro-1-(4-(trifluoromethyl)phenethyl)piperidin-4-yl)-7H-pyrrolo-[2,3-d]pyrimidin-4-amine], the “hERG @ 10 μM” value at hERG channel worked out at 60%. Moreover, the IC50 on human NR1/NR2A [1] (setting [3]) is more than 10 µM; on human NR1/NR2B (setting [4]), 105 nM.
As for `FC(F)Oc1ccc(CCN2CCC(Nc3ncnc4[nH]ncc34)C(F)(F)C2)cc1` (single isomer, unassigned) [E1-1.12, (R*)-N-(1-(4-(difluoromethoxy)phenethyl)-3,3-difluoropiperidin-4-yl)-1H-pyrazolo[3,4-d]pyrimidin-4-amine], the “hERG @ 10 μM” value on hERG channel stood at 79%. The IC50 on human NR1/NR2A [1] was more than 10 µM; at human NR1/NR2B (setting [5]), 83.8 nM.
Regarding `Cc1ccc(CCN2CCC(Nc3ncnc4[nH]ncc34)C(F)(F)C2)cc1` (single isomer, unassigned) [E2-1.4, (S*)-N-(3,3-difluoro-1-(4-methylphenethyl)piperidin-4-yl)-1H-pyrazolo[3,4-d]-pyrimidin-4-amine], the results for the IC50 at human NR1/NR2A [2] and on human NR1/NR2B (setting [5]) were more than 10 µM and 21.9 nM, respectively.
For the compound `FC(F)c1ccc(CCN2CCC(Nc3ncnc4[nH]ncc34)C(F)(F)C2)cc1` (single isomer, unassigned) [E1-1.6, (R*)-N-(1-(4-(difluoromethyl)phenethyl)-3,3-difluoropiperidin-4-yl)-1H-pyrazolo-[3,4-d]pyrimidin-4-amine], the IC50 against hERG channel (hERG IC50) was 3.5 µM; on human NR1/NR2A [1], more than 10 µM. In addition, the “hERG @ 10 μM” value on hERG channel is listed as 63%. At CYP2D6, the “CYP2D6 @ 10 μM” value came out at 24.4%.
`Fc1ccc(CCN2CCC(Nc3ncnc4[nH]ncc34)C(F)(F)C2)cc1` (racemic) [C-1.2, (±)-N-(3,3-difluoro-1-(4-fluorophenethyl)piperidin-4-yl)-1H-pyrazolo[3,4-d]-pyrimidin-4-amine]: the IC50 against hERG channel was 16.3 µM; on human NR1/NR2A [1], more than 10 µM; at human NR1/NR2B (setting [5]), 68.3 nM. Also, the “CYP2D6 @ 10 μM” value at CYP2D6 is reported as 45.1%.
For `FC(F)(F)Oc1ccc(CCN2CCC(Nc3ncnc4[nH]ncc34)C(F)(F)C2)cc1` (single isomer, unassigned) [E1-1.11, (R*)-N-(3,3-difluoro-1-(4-(trifluoromethoxy)phenethyl)piperidin-4-yl)-1H-pyrazolo[3,4-d]pyrimidin-4-amine], the IC50 on human NR1/NR2A [1] is more than 10 µM.
In the case of `FC1(F)CN(CCc2ccccc2)CCC1Nc1ncnc2[nH]ncc12` (racemic) [C-1.1, (±)-N-(3,3-difluoro-1-phenethylpiperidin-4-yl)-1H-pyrazolo[3,4-d]pyrimidin-4-amine], the figures for the half-inhibitory concentration (IC50) against hERG channel, on human NR1/NR2A [1] and on human NR1/NR2B (setting [5]) were 71 µM, more than 10 µM and 98.8 nM, respectively.
Take `FCc1ccc(CCN2CCC(Nc3ncnc4[nH]ncc34)C(F)(F)C2)cc1` (single isomer, unassigned) [E1-1.7, (R*)-N-(3,3-difluoro-1-(4-(fluoromethyl)phenethyl)piperidin-4-yl)-1H-pyrazolo[3,4-d]-pyrimidin-4-amine]: at hERG channel, the “hERG @ 10 μM” value is given as 36%. For the same compound, the IC50 at human NR1/NR2A [1] is more than 10 µM; at human NR1/NR2B (setting [5]) it was 22.4 nM. The “CYP2D6 @ 10 μM” value at CYP2D6 worked out at 23.2%.
In the case of `Cc1ccc(CCN2CCC(Nc3ncnc4[nH]ncc34)C(F)(F)C2)cc1` (single isomer, unassigned) [E1-1.4, (R*)-N-(3,3-difluoro-1-(4-methylphenethyl)piperidin-4-yl)-1H-pyrazolo[3,4-d]-pyrimidin-4-amine], the figures for the IC50 on human NR1/NR2A [1] and at human NR1/NR2B (setting [5]) were more than 10 µM and 18.5 nM, respectively.
In the case of `Fc1ccc(F)c(CCN2CCC(Nc3ncnc4[nH]ncc34)C(F)(F)C2)c1` (racemic) [C-1.35, (±)-N-(1-(2,5-difluorophenethyl)-3,3-difluoropiperidin-4-yl)-1H-pyrazolo[3,4-d]-pyrimidin-4-amine], the “hERG @ 10 μM” value on hERG channel was 17%. The half-inhibitory concentration (IC50) at human NR1/NR2A [1] is more than 10 µM; on human NR1/NR2B (setting [5]) it was 329 nM.
As to `FC1(F)CN(CCc2ccc(Cl)cc2)CCC1Nc1ncnc2[nH]ncc12` (single isomer, unassigned) [E1-1.3, (R*)-N-(1-(4-chlorophenethyl)-3,3-difluoropiperidin-4-yl)-1H-pyrazolo[3,4-d]-pyrimidin-4-amine], the “hERG @ 10 μM” value at hERG channel turned out to be 58%. Further, the IC50 is more than 10 µM on human NR1/NR2A [1] and 25 nM at human NR1/NR2B (setting [5]). For the same compound, the “CYP2D6 @ 10 μM” value on CYP2D6 was 21.5%.
With `Cc1n[nH]c2ncnc(NC3CCN(CCc4ccc(C(F)(F)F)cc4)CC3(F)F)c12` (racemic) [C-1.34, (±)-N-(3,3-difluoro-1-(4-(trifluoromethyl)phenethyl)piperidin-4-yl)-3-methyl-1H-pyrazolo[3,4-d]pyrimidin-4-amine], the “hERG @ 10 μM” value at hERG channel was determined as 68%. Also, the IC50 at human NR1/NR2A [1] is more than 10 µM.
Take `Cc1ccc(CCN2CCC(Nc3ncnc4[nH]ncc34)C(F)(F)C2)cn1` (racemic) [C-3.4, (±)-N-(3,3-difluoro-1-(2-(6-methylpyridin-3-yl)ethyl)piperidin-4-yl)-1H-pyrazolo[3,4-d]pyrimidin-4-amine]: the “hERG @ 10 μM” value at hERG channel is recorded as 18%. Also, the half-inhibitory concentration (IC50) on human NR1/NR2A [1] is more than 10 µM; at human NR1/NR2B (setting [5]), 2270 nM.

One may read the IC50 as the concentration needed to halve the response being measured.
